Results reported in patent publication US20250382332A1, “NOVEL ALPHA-FACTOR BASED PEPTIDES WITH ANTIFUNGAL ACTIVITY” (INVAIO SCIENCES, INC., priority 2024, published 2025).
Peptide text beside a SMILES is read from it.

Tested on: Botrytis cinerea (B05.10)
Test: Resazurin antifungal assay of 180 alpha-factor peptide variants towards Botrytis (Example 2)
Assay type: cell-based
Conditions: % inhibition of fungal growth, Botrytis conidia, resazurin; for Inhibition at 50 μM: peptide 50 μM; for Inhibition at 100 μM: peptide 100 μM
Summary of the method: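 B. cinerea B05.10 conidia (5000/well) were exposed to peptides at 100, 50, 20, 15 and 10 μM final for 24 h at 20° C. Resazurin was then added and fluorescence read at 570/620 nm. Percent growth inhibition was calculated against conidia-only wells, with four technical replicates.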

SMILES	Inhibition at 50 μM	Inhibition at 100 μM
CSCC[C@H](NC(=O)[C@@H]1CCCN1C(=O)[C@H](CCC(=O)O)NC(=O)CNC(=O)[C@@H]1CCCN1C(=O)[C@H](CCCCN)NC(=O)[C@H](CC(C)C)NC(=O)[C@H](CC(N)=O)NC(=O)[C@H](CC(C)C)NC(=O)[C@H](Cc1c[nH]c2ccccc12)NC(=O)[C@H](CCCCN)NC(=O)[C@@H]1CCCN1)C(=O)N[C@@H](Cc1ccc(O)cc1)C(=O)O [compound 148] (H-PKWLNLKPGEPMY-OH; N-terminus and C-terminus assumed)	<90%	<90%
CSCC[C@H](NC(=O)[C@@H]1CCCN1C(=O)[C@H](CCC(N)=O)NC(=O)CNC(=O)[C@@H]1CCCN1C(=O)[C@H](CCSC)NC(=O)[C@H](CC(C)C)NC(=O)[C@H](CCCCN)NC(=O)[C@H](CC(C)C)NC(=O)[C@@H](NC(=O)[C@H](CCCNC(=N)N)NC(=O)[C@@H](N)Cc1c[nH]c2ccccc12)C(C)C)C(=O)N[C@@H](Cc1ccc(O)cc1)C(=O)O [compound 149] (H-WRVLKLMPGQPMY-OH; N-terminus and C-terminus assumed)	<90%	<90%
CC[C@H](C)[C@H](NC(=O)[C@H](CCC(N)=O)NC(=O)[C@H](CC(C)C)NC(=O)[C@H](Cc1ccccc1)NC(=O)[C@H](Cc1c[nH]cn1)NC(=O)[C@@H](N)Cc1c[nH]c2ccccc12)C(=O)N[C@@H](CCCCN)C(=O)N1CCC[C@H]1C(=O)NCC(=O)N[C@@H](CCC(=O)O)C(=O)N1CCC[C@H]1C(=O)N[C@@H](CCSC)C(=O)N[C@@H](Cc1ccc(O)cc1)C(=O)O [compound 150] (H-WHFLQIKPGEPMY-OH; N-terminus and C-terminus assumed)	<90%	<90%
CSCC[C@H](NC(=O)[C@@H]1CCCN1C(=O)[C@H](CCC(N)=O)NC(=O)CNC(=O)[C@@H]1CCCN1C(=O)[C@H](CCCCN)NC(=O)[C@H](CC(C)C)NC(=O)[C@H](CC(N)=O)NC(=O)[C@H](CC(C)C)NC(=O)[C@H](Cc1c[nH]c2ccccc12)NC(=O)[C@H](CCC(=O)O)NC(=O)[C@@H](N)CCCCN)C(=O)N[C@@H](Cc1ccc(O)cc1)C(=O)O [compound 151] (H-KEWLNLKPGQPMY-OH; N-terminus and C-terminus assumed)	<90%	<90%
CC[C@H](C)[C@H](NC(=O)[C@H](CCC(N)=O)NC(=O)[C@H](CC(C)C)NC(=O)[C@H](Cc1c[nH]c2ccccc12)NC(=O)[C@H](CO)NC(=O)[C@@H](N)CCCCN)C(=O)N[C@@H](CCCCN)C(=O)N[C@@H](CC(N)=O)C(=O)NCC(=O)N[C@@H](CCC(N)=O)C(=O)N1CCC[C@H]1C(=O)N[C@@H](CCSC)C(=O)N[C@@H](Cc1ccc(O)cc1)C(=O)O [compound 152] (H-KSWLQIKNGQPMY-OH; N-terminus and C-terminus assumed)	<90%	<90%
CC[C@H](C)[C@H](NC(=O)CNC(=O)[C@@H](N)CCCCN)C(=O)N[C@@H](CC(C)C)C(=O)N[C@H](C(=O)N[C@@H](CC(C)C)C(=O)N[C@@H](CCCCN)C(=O)N1CCC[C@H]1C(=O)NCC(=O)N[C@@H](CCC(N)=O)C(=O)N1CCC[C@H]1C(=O)N[C@@H](CCSC)C(=O)N[C@@H](Cc1ccc(O)cc1)C(=O)O)[C@@H](C)O [compound 153] (H-KGILTLKPGQPMY-OH; N-terminus and C-terminus assumed)	<90%	<90%
CSCC[C@H](NC(=O)[C@@H]1CCCN1C(=O)[C@H](CO)NC(=O)CNC(=O)[C@@H]1CCCN1C(=O)[C@H](CCCCN)NC(=O)[C@H](CC(C)C)NC(=O)[C@H](C)NC(=O)[C@H](CC(C)C)NC(=O)[C@@H](NC(=O)[C@H](Cc1c[nH]cn1)NC(=O)[C@@H](N)CCCCN)C(C)C)C(=O)N[C@@H](Cc1ccc(O)cc1)C(=O)O [compound 154] (H-KHVLALKPGSPMY-OH; N-terminus and C-terminus assumed)	<90%	<90%
CC[C@H](C)[C@H](NC(=O)[C@H](CCCCN)NC(=O)[C@@H](N)Cc1c[nH]c2ccccc12)C(=O)N[C@@H](CC(C)C)C(=O)N[C@H](C(=O)N[C@H](C(=O)N[C@@H](CCCCN)C(=O)N1CCC[C@H]1C(=O)NCC(=O)N[C@@H](CCC(N)=O)C(=O)N1CCC[C@H]1C(=O)N[C@@H](CCSC)C(=O)N[C@@H](Cc1ccc(O)cc1)C(=O)O)[C@@H](C)CC)[C@@H](C)O [compound 155] (H-WKILTIKPGQPMY-OH; N-terminus and C-terminus assumed)	<90%	<90%
CSCC[C@H](NC(=O)[C@@H]1CCCN1C(=O)[C@H](CO)NC(=O)CNC(=O)[C@H](CC(N)=O)NC(=O)[C@H](CCCCN)NC(=O)[C@H](CC(C)C)NC(=O)[C@H](CCC(N)=O)NC(=O)[C@@H](NC(=O)[C@H](CC(=O)O)NC(=O)[C@H](Cc1c[nH]cn1)NC(=O)[C@@H](N)CCCCN)C(C)C)C(=O)N[C@@H](Cc1ccc(O)cc1)C(=O)O [compound 156] (H-KHDVQLKNGSPMY-OH; N-terminus and C-terminus assumed)	<90%	<90%
CSCC[C@H](NC(=O)[C@@H]1CCCN1C(=O)[C@H](CCC(N)=O)NC(=O)CNC(=O)[C@@H](NC(=O)[C@H](CCC(N)=O)NC(=O)[C@H](Cc1ccccc1)NC(=O)[C@H](CC(N)=O)NC(=O)CNC(=O)[C@H](Cc1c[nH]c2ccccc12)NC(=O)[C@H](Cc1c[nH]cn1)NC(=O)[C@@H](N)Cc1c[nH]c2ccccc12)[C@@H](C)O)C(=O)N[C@@H](Cc1ccc(O)cc1)C(=O)O [compound 157] (H-WHWGNFQTGQPMY-OH; N-terminus and C-terminus assumed)	<90%	97.14%
CSCC[C@H](NC(=O)[C@@H]1CCCN1C(=O)[C@H](CCC(=O)O)NC(=O)CNC(=O)[C@@H]1CCCN1C(=O)[C@H](CCCCN)NC(=O)[C@H](CC(C)C)NC(=O)[C@H](CC(N)=O)NC(=O)[C@H](CC(C)C)NC(=O)[C@H](Cc1c[nH]c2ccccc12)NC(=O)[C@H](Cc1c[nH]cn1)NC(=O)[C@@H]1CCCN1)C(=O)N[C@@H](Cc1ccc(O)cc1)C(=O)O [compound 158] (H-PHWLNLKPGEPMY-OH; N-terminus and C-terminus assumed)	<90%	<90%
CSCC[C@H](NC(=O)[C@H](CO)NC(=O)[C@H](CCC(N)=O)NC(=O)CNC(=O)[C@@H]1CCCN1C(=O)[C@H](CCCCN)NC(=O)[C@H](Cc1ccccc1)NC(=O)[C@H](CC(N)=O)NC(=O)[C@H](CC(C)C)NC(=O)[C@H](CO)NC(=O)[C@H](CCCCN)NC(=O)[C@@H](N)Cc1c[nH]c2ccccc12)C(=O)N[C@@H](Cc1ccc(O)cc1)C(=O)O [compound 159] (H-WKSLNFKPGQSMY-OH; N-terminus and C-terminus assumed)	<90%	<90%
